Data reported in ChEMBL document CHEMBL1201862, “PubChem BioAssay data set” (2004).
Activity calls are given as the source filed them.

Assays:
[1] = molecular target: Runt-related transcription factor 1/Core-binding factor subunit beta (Homo sapiens, UniProt Q01196+Q13951); assay: Confirmation of compounds inhibiting the binding between the RUNX1 Runt domain and CBFb-SMMHC via a fluorescence resonance energy transfer (FRET) assay. [Related pubchem assays (depositor defined):AID1434, AID1438, AID1496, AID1550, AID1645]; assay type: protein assay
Runt-related transcription factor 1/Core-binding factor subunit beta, sequence (Q01196 whole entry, the tested form may be a part): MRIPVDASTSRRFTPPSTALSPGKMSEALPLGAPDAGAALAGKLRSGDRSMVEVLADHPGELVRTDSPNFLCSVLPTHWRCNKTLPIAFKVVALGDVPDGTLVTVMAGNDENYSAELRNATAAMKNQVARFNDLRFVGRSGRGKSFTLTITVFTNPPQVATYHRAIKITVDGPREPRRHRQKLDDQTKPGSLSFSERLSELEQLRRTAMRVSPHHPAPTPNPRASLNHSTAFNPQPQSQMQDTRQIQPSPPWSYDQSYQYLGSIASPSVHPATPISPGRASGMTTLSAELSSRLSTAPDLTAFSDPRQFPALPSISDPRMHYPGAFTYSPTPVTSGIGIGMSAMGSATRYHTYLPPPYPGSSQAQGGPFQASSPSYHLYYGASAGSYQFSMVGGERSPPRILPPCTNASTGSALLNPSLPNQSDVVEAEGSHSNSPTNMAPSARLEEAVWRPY
Runt-related transcription factor 1/Core-binding factor subunit beta, sequence (Q13951 whole entry, the tested form may be a part): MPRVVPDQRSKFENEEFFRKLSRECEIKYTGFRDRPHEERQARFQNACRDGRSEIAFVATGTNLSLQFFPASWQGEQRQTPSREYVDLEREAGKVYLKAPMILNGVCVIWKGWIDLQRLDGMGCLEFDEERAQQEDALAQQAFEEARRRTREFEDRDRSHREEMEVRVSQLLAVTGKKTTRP

[2] = molecular target: T1, Heat shock factor protein 1 (Mus musculus, UniProt P38532); assay: decrease of HSF1-responsive luciferase luminescence – cell-based, NIH3T3, dose retest, confirmation (AID 2382); assay type: functional;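 further: NIH3T3 fibroblasts with HSF1-driven luciferase reporter stressed by proteasome inhibitor MG132; luminescence from HSF1-driven luciferase expression after 8 hours of MG132 stress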
T1 sequence (P38532 whole entry): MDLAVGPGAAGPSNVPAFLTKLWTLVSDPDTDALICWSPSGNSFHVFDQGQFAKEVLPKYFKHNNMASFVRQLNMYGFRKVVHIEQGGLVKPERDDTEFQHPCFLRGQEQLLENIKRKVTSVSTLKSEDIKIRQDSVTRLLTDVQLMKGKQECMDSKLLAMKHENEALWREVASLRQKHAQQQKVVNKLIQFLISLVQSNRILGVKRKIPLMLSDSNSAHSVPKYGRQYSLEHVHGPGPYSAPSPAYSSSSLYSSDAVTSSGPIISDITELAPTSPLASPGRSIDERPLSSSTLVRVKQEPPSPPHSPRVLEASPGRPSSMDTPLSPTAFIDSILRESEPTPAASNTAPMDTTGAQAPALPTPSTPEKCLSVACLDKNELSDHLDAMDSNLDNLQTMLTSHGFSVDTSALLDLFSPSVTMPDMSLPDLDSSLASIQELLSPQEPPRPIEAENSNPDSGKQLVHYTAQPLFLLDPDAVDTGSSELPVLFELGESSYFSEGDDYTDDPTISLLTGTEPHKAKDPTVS

[3] = molecular target: T2, Corticotropin-releasing factor receptor 2/Corticotropin-releasing factor-binding protein (Homo sapiens, UniProt P24387+Q13324); assay: activators of CRF receptor 2 with binding protein – uHTS hits, confirmation (AID 602473); assay type: functional; conditions: read-out: EC50_Mean
T2 sequence (Q13324 whole entry): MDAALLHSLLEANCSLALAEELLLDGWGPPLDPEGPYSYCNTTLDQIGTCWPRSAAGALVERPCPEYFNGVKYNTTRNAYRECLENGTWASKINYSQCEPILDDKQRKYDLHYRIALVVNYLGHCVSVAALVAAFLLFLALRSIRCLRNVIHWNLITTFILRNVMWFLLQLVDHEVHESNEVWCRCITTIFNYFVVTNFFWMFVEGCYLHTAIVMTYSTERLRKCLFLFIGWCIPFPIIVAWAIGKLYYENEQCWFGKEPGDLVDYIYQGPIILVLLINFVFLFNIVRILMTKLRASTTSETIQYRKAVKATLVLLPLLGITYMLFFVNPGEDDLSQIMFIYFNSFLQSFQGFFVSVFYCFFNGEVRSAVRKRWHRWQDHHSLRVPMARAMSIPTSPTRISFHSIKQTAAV
T2 sequence (P24387 whole entry): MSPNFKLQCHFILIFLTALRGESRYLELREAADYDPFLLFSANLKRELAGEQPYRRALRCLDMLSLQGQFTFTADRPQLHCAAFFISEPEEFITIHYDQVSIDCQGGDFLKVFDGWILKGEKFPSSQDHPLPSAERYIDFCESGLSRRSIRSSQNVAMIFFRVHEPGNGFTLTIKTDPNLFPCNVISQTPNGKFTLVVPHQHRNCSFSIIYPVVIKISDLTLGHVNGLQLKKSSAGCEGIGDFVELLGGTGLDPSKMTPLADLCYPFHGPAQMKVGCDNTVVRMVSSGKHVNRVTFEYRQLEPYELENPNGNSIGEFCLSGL

[4] = molecular target: T3, E3 ubiquitin-protein ligase XIAP (Homo sapiens, UniProt P98170); assay: Counter Screen using XIAP-Bir3 for Chemical Antagonists of Bir1/2 domains of IAP-family anti-apoptotic proteins. [Related pubchem assays (depositor defined):AID1018, AID1449, AID1514, AID1638, AID1749, AID1750, AID488957, AID488963]
T3 sequence (P98170 whole entry): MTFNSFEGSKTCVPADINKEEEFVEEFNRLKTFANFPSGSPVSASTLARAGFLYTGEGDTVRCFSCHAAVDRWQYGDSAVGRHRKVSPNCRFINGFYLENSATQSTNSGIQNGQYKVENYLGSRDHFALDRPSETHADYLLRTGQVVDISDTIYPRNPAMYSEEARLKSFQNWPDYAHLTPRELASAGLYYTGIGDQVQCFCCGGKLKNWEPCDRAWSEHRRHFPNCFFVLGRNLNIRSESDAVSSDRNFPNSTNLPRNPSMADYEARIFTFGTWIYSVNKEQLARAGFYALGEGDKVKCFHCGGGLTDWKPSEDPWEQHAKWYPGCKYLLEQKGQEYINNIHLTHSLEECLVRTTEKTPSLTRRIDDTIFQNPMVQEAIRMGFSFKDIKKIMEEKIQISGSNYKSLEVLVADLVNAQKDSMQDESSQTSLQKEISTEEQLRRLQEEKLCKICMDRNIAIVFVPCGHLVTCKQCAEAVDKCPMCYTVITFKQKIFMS

[5] = molecular target: T3, E3 ubiquitin-protein ligase XIAP; assay: small molecules displacing peptide from XIAP – biochemical, IAP family, fluorescence polarization (AID 1018); assay type: functional
[6] = molecular target: Voltage-dependent T-type calcium channel subunit alpha-1H (Homo sapiens, UniProt O95180); assay: human CACNA1H calcium influx blockade – cell-based, synthetic library set 2, HEK293 HH8, Fluo-4, SAR follow-up (AID 493023); assay type: functional
Voltage-dependent T-type calcium channel subunit alpha-1H, sequence (O95180 whole entry): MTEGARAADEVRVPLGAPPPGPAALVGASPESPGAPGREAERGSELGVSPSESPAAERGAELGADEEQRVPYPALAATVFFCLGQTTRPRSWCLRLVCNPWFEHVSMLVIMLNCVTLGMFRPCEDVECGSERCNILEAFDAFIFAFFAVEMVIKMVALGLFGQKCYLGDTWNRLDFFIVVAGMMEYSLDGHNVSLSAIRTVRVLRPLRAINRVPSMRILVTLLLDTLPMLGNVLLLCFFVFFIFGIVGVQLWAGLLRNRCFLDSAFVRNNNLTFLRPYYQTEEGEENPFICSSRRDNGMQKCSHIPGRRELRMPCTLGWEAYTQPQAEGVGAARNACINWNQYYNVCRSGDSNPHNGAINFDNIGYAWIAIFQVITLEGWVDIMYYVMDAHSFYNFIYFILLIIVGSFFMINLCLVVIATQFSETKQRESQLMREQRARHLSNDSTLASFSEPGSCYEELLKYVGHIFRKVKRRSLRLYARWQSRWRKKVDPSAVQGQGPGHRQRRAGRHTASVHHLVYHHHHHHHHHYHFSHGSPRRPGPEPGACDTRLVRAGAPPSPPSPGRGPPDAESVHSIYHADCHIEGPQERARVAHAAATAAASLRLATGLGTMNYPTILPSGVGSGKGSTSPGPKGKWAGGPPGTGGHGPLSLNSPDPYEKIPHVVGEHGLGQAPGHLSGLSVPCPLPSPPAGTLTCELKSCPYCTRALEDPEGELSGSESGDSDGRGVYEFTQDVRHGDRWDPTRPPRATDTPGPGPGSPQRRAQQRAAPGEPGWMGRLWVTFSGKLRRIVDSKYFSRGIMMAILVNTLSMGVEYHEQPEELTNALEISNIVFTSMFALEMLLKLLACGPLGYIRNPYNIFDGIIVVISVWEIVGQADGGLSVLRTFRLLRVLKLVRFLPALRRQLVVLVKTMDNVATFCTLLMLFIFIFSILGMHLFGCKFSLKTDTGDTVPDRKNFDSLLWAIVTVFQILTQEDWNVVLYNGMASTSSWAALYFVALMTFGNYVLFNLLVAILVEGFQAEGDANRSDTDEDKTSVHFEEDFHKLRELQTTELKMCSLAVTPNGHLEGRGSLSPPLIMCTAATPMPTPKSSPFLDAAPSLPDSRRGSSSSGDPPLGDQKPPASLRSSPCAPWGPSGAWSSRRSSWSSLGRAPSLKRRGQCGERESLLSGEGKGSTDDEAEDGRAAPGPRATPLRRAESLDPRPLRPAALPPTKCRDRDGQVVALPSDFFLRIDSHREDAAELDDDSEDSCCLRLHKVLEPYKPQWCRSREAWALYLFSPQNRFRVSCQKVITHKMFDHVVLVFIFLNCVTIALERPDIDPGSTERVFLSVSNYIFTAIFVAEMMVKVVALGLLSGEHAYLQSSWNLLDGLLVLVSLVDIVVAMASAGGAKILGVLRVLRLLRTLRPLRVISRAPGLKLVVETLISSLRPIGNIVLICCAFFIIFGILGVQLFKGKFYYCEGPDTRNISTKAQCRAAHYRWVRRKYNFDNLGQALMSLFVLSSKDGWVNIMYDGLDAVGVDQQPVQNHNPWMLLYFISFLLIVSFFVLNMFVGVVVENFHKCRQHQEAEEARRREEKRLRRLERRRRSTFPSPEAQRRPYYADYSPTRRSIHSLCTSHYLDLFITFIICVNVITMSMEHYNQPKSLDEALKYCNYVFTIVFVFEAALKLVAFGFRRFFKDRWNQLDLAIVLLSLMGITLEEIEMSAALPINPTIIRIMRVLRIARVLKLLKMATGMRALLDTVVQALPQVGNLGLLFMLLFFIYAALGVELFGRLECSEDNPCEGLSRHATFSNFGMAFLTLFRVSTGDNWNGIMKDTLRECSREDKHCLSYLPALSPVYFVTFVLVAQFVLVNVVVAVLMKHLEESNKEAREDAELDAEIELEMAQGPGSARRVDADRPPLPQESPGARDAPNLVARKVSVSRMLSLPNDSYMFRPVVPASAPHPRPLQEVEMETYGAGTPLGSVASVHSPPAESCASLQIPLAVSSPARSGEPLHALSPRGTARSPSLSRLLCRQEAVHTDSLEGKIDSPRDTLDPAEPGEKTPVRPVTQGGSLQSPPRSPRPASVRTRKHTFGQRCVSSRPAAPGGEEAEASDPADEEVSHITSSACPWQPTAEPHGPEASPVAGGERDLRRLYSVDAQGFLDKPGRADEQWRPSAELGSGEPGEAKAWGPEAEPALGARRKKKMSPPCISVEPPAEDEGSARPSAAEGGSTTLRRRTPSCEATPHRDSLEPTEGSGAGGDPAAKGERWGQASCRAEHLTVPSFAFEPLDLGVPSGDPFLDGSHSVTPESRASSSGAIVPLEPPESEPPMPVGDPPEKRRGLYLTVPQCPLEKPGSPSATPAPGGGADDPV

Compound: CCS(=O)(=O)Nc1ccc(-c2nc3cccnc3s2)cc1
- IC50 [1]: 12.8 µM (active)
- EC50 [2]: 92.9 µM (active)
- EC50 [3]: > 53 µM (inactive)

Compound: O=C1C2C3c4ccccc4C(c4ccccc43)C2C(=O)N1c1ccncc1 (stereo unspecified)
- IC50 [4]: > 100 µM (inactive)
- IC50 [5]: > 100 µM (not active)

Compound: O=C(COc1ccc(F)c(Cl)c1)N[C@H]1CCCN(Cc2ccccc2)C1
- EC50 [6]: 10 µM (active)
